For 26 compounds, TGI results are on record in PubChem BioAssay (NCI).

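Exposure lasted 48 hours, with cells grown in 96-well plates and compounds tested at five concentrations. TGI: concentration producing complete growth inhibition.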 Where only a bound is given, the exact number is not on record here.

The test system of the first test is HOP-92 NSCLC. The test can be described thus: NCI anticancer screen, dose series, 48 h.
Compound `CCOC(=O)C(OCC1CC=CCC1)Sc1ccccc1` (configuration not stated) registered a TGI of over 100 µM.

Compound `O=C(NS(=O)(=O)Nc1ccc(Cl)cc1)OCc1ccc(Cl)cc1Cl` had a TGI of 61.9 µM.

The test system of a further test is NCI-H522 lung. Description: NCI anticancer screen, dose series, 48 h.
`Nc1nc2ncc(SCc3ccc(C(=O)NC(CCC(=O)O)C(=O)O)cc3)cc2c(=O)[nH]1` (configuration not stated) showed a TGI of over 100 µM.

In turn, `CC(C)CC(N)C(=O)OCN1C(=O)C2C3C=CC(C2C1=O)C1C2C(=O)N(COC(=O)C(N)CC(C)C)C(=O)C2C31` (configuration not stated) returned a TGI of over 100 µM.

`COC(=O)c1cc(CC(C)C)c2c(c1)[nH]c1ccccc12` had a TGI of over 100 µM.

For the compound `C[N+](C)(C)CC(=O)N/N=c1\cc(C(=O)Nc2ccc(N=O)cc2C#N)oc2cc(O)ccc12`, the TGI is over 100 µM.

As to `N#CCCN(c1ccc(C=Nc2cccc([N+](=O)[O-])c2)cc1)S(=O)(=O)c1ccccc1`, the TGI was over 100 µM.

Take `COc1ccc(/C(=C/n2ccnc2)C(=O)c2ccc(OC)c(OC)c2)cc1`: the TGI is over 100 µM.

The compound `Clc1cc(N/N=C(/c2ccccc2)c2ncccn2)ncn1` returned a TGI of 5.51 µM.

In turn, `O=C1CC2(C[C@@H]3CCCCCCCCC[C@@H](C3)C2)N1` (some centres not stated) yielded a TGI of 33.1 µM.

For `Cc1c(S(=O)(=O)c2ccccc2)c(N)n(Cc2ccccc2)c1C`, the TGI was over 100 µM.

`CCCN=C1CC(C)Nc2ccccc2N1` (configuration not stated): the TGI is over 100 µM.

In turn, `CC(C)C(Sc1nc(-c2ccccc2)c(-c2ccccc2)[nH]1)C(=O)NNC(=S)Nc1ccccc1` (configuration not stated) registered a TGI of 21.5 µM.

`COC1O[C@H]2CCN(C(=O)OCc3ccccc3)[C@H]2[C@H]1OCc1ccccc1` (some centres not stated): the TGI was over 100 µM.

Take `COc1ccc(C2C(Cl)C(=O)N2NC(=O)c2ccc(NC(C)=O)cc2)cc1` (configuration not stated): the TGI was over 100 µM.

In turn, `c1ccc(C[P+]2(c3ccccc3)c3ccccc3-c3ccccc32)cc1` displayed a TGI of over 100 µM.

Regarding `Cc1c(Cl)cccc1NC(=O)C(=O)C1C(=O)CC(C)(C)CC1=O`, the TGI is over 100 µM.

Take `C=CCN(CC=C)Cn1c(=S)sc2ccccc21`: the TGI came to 37.7 µM.

Compound `O=C1O[C@@H](c2ccccc2)C[C@@H]1CN1CCOCC1` returned a TGI of over 100 µM.

In the case of `COc1ccc2nc(-c3ccc(OCc4ccccc4)cc3)ccc2c1`, the TGI was over 100 µM.

`N#C/C(=C\NC(=S)Nc1ccc(S(=O)(=O)Nc2ccccn2)cc1)C(N)=O` gave a TGI of over 100 µM.

The compound `COC1(C)CC2N(C(=O)c3ccccc3)N=C(c3ccccc3)CC2(C)O1` (configuration not stated) gave a TGI of over 100 µM.

In turn, `Cc1c(Cl)ccc2c(=O)c3cccc(CC(=O)O)c3oc12` showed a TGI of over 100 µM.

Compound `Nc1ccccc1Nc1ccccc1C(=O)[O-].Nc1ccccc1Nc1ccccc1C(=O)[O-].[Cu+2]` returned a TGI of over 100 µM.

Turning to `CCOC(=O)C(OCC1CC=CCC1)Sc1ccccc1` (configuration not stated), the TGI is over 100 µM.

In a further test the test system is SN12C renal. Description: NCI anticancer screen, dose series, 48 h.
`Nc1nc2ncc(SCc3ccc(C(=O)NC(CCC(=O)O)C(=O)O)cc3)cc2c(=O)[nH]1` (configuration not stated): the TGI was over 100 µM.

Compound `CC(C)CC(N)C(=O)OCN1C(=O)C2C3C=CC(C2C1=O)C1C2C(=O)N(COC(=O)C(N)CC(C)C)C(=O)C2C31` (configuration not stated) yielded a TGI of over 100 µM.

For the compound `COC(=O)c1cc(CC(C)C)c2c(c1)[nH]c1ccccc12`, the TGI was over 100 µM.

For the compound `C[N+](C)(C)CC(=O)N/N=c1\cc(C(=O)Nc2ccc(N=O)cc2C#N)oc2cc(O)ccc12`, the TGI is over 100 µM.

For `N#CCCN(c1ccc(C=Nc2cccc([N+](=O)[O-])c2)cc1)S(=O)(=O)c1ccccc1`, the TGI was over 100 µM.

On to `CC1(C)CC2(C)CC1CC2O` (configuration not stated), for which the TGI was over 100 µM.

The compound `COc1ccc(/C(=C/n2ccnc2)C(=O)c2ccc(OC)c(OC)c2)cc1` registered a TGI of over 100 µM.

`Clc1cc(N/N=C(/c2ccccc2)c2ncccn2)ncn1` returned a TGI of over 100 µM.

For `O=C1CC2(C[C@@H]3CCCCCCCCC[C@@H](C3)C2)N1` (some centres not stated), the TGI was found to be 30.8 µM.

Consider `Cc1c(S(=O)(=O)c2ccccc2)c(N)n(Cc2ccccc2)c1C`, for which the TGI was over 100 µM.

Turning to `CCCN=C1CC(C)Nc2ccccc2N1` (configuration not stated), the TGI was over 100 µM.

The compound `CC(C)C(Sc1nc(-c2ccccc2)c(-c2ccccc2)[nH]1)C(=O)NNC(=S)Nc1ccccc1` (configuration not stated) returned a TGI of 33.8 µM.

Compound `COC1O[C@H]2CCN(C(=O)OCc3ccccc3)[C@H]2[C@H]1OCc1ccccc1` (some centres not stated) showed a TGI of over 100 µM.

`COc1ccc(C2C(Cl)C(=O)N2NC(=O)c2ccc(NC(C)=O)cc2)cc1` (configuration not stated) displayed a TGI of over 100 µM.

On to `c1ccc(C[P+]2(c3ccccc3)c3ccccc3-c3ccccc32)cc1`, for which the TGI is over 100 µM.

Take `Cc1c(Cl)cccc1NC(=O)C(=O)C1C(=O)CC(C)(C)CC1=O`: the TGI was over 100 µM.

Compound `C=CCN(CC=C)Cn1c(=S)sc2ccccc21` yielded a TGI of over 100 µM.

Turning to `O=C1O[C@@H](c2ccccc2)C[C@@H]1CN1CCOCC1`, the TGI is over 100 µM.

`COc1ccc2nc(-c3ccc(OCc4ccccc4)cc3)ccc2c1` had a TGI of over 100 µM.

Consider `N#C/C(=C\NC(=S)Nc1ccc(S(=O)(=O)Nc2ccccn2)cc1)C(N)=O`, for which the TGI was over 100 µM.

Compound `COC1(C)CC2N(C(=O)c3ccccc3)N=C(c3ccccc3)CC2(C)O1` (configuration not stated) returned a TGI of over 100 µM.

`Cc1c(Cl)ccc2c(=O)c3cccc(CC(=O)O)c3oc12` came in with a TGI of over 100 µM.

The compound `Nc1ccccc1Nc1ccccc1C(=O)[O-].Nc1ccccc1Nc1ccccc1C(=O)[O-].[Cu+2]` gave a TGI of over 100 µM.

For `Cc1ccccc1C1OC1C(=O)c1ccccc1N` (configuration not stated), the TGI was over 100 µM.

In turn, `CCOC(=O)C(OCC1CC=CCC1)Sc1ccccc1` (configuration not stated) had a TGI of over 100 µM.

`O=C(NS(=O)(=O)Nc1ccc(Cl)cc1)OCc1ccc(Cl)cc1Cl` yielded a TGI of 63 µM.

Another test has as its system SF-539 CNS. The test can be described thus: NCI anticancer screen, dose series, 48 h.
In turn, `Nc1nc2ncc(SCc3ccc(C(=O)NC(CCC(=O)O)C(=O)O)cc3)cc2c(=O)[nH]1` (configuration not stated) had a TGI of over 100 µM.

In the case of `CC(C)CC(N)C(=O)OCN1C(=O)C2C3C=CC(C2C1=O)C1C2C(=O)N(COC(=O)C(N)CC(C)C)C(=O)C2C31` (configuration not stated), the TGI was over 100 µM.

The compound `COC(=O)c1cc(CC(C)C)c2c(c1)[nH]c1ccccc12` gave a TGI of over 100 µM.

Consider `C[N+](C)(C)CC(=O)N/N=c1\cc(C(=O)Nc2ccc(N=O)cc2C#N)oc2cc(O)ccc12`, for which the TGI is over 100 µM.

In turn, `N#CCCN(c1ccc(C=Nc2cccc([N+](=O)[O-])c2)cc1)S(=O)(=O)c1ccccc1` came in with a TGI of over 100 µM.

For `CC1(C)CC2(C)CC1CC2O` (configuration not stated), the TGI is over 100 µM.

`COc1ccc(/C(=C/n2ccnc2)C(=O)c2ccc(OC)c(OC)c2)cc1` displayed a TGI of over 100 µM.

Consider `Clc1cc(N/N=C(/c2ccccc2)c2ncccn2)ncn1`, for which the TGI is 54.7 µM.

`O=C1CC2(C[C@@H]3CCCCCCCCC[C@@H](C3)C2)N1` (some centres not stated): the TGI amounted to 30.4 µM.

The compound `Cc1c(S(=O)(=O)c2ccccc2)c(N)n(Cc2ccccc2)c1C` had a TGI of over 100 µM.

`CC(C)C(Sc1nc(-c2ccccc2)c(-c2ccccc2)[nH]1)C(=O)NNC(=S)Nc1ccccc1` (configuration not stated): the TGI was 35.8 µM.

Compound `COC1O[C@H]2CCN(C(=O)OCc3ccccc3)[C@H]2[C@H]1OCc1ccccc1` (some centres not stated) registered a TGI of over 100 µM.

As to `COc1ccc(C2C(Cl)C(=O)N2NC(=O)c2ccc(NC(C)=O)cc2)cc1` (configuration not stated), the TGI was over 100 µM.

Consider `c1ccc(C[P+]2(c3ccccc3)c3ccccc3-c3ccccc32)cc1`, for which the TGI is over 100 µM.

Regarding `Cc1c(Cl)cccc1NC(=O)C(=O)C1C(=O)CC(C)(C)CC1=O`, the TGI was over 100 µM.

`C=CCN(CC=C)Cn1c(=S)sc2ccccc21` yielded a TGI of over 100 µM.
